In patent publication US10448639B2, “Fungicidal pyrazoles” (FMC CORPORATION, priority 2009, dated 2019):

Legend:
[1] = tested on: Botrytis cinerea; experiment: Test B: tomato Botrytis, preventive spray on tomato seedlings, visual disease rating; conditions: tomato Botrytis, preventive spray; 100 = 100% disease control, 0 = no control
[2] = tested on: Septoria nodorum; experiment: Test F: Septoria glume blotch, preventive spray on wheat seedlings, visual disease rating; conditions: Septoria glume blotch on wheat, preventive spray; 100 = 100% disease control, 0 = no control
[3] = tested on: Alternaria solani; experiment: Test C: tomato early blight, preventive spray on tomato seedlings, visual disease rating; conditions: tomato early blight, preventive spray; 100 = 100% disease control, 0 = no control
Text: General protocol for preparing test suspensions for Tests A-J: the test compounds were first dissolved in acetone in an amount equal to 3% of the final volume and then suspended at the desired concentration (in ppm) in acetone and purified water (50/50 mix by volume) containing 250 ppm of the surfactant Trem® 014 (polyhydric alcohol esters). The resulting test suspensions were then used in Tests A-J. Spraying a 200 ppm test suspension to the point of run-off on the test plants was the equivalent of a rate of 500 g/ha. Unless otherwise indicated, the rating values indicate a 200 ppm test suspension was used. (An asterisk “*” next to the rating value indicates a 40 ppm test suspension was used.)
The test suspension was sprayed to the point of run-off on tomato seedlings. The following day the seedlings were inoculated with a spore suspension of Alternaria solani (the causal agent of tomato early blight) and incubated in a saturated atmosphere at 27° C. for 48 h, and then moved to a growth chamber at 20° C. for 5 days, after which time visual disease ratings were made.

[4] = tested on: Erysiphe graminis f sp. tritici; experiment: Test J: wheat powdery mildew, preventive spray on wheat seedlings, visual disease rating; conditions: wheat powdery mildew, preventive spray; 100 = 100% disease control, 0 = no control
[5] = tested on: Septoria tritici; experiment: Test G: wheat leaf blotch, preventive spray on wheat seedlings, visual disease rating; conditions: wheat leaf blotch, preventive spray; 100 = 100% disease control, 0 = no control
[6] = tested on: Puccinia recondita f. sp. tritici; experiment: Test H: wheat leaf rust, curative spray on inoculated wheat seedlings, visual disease rating; conditions: wheat leaf rust, curative spray; 100 = 100% disease control, 0 = no control
[7] = tested on: Puccinia recondita f. sp. tritici; experiment: Test I: wheat leaf rust, preventive spray on wheat seedlings, visual disease rating; conditions: wheat leaf rust, preventive spray; 100 = 100% disease control, 0 = no control

Row | SMILES | Test B rating (% disease control) [1] | Test F rating (% disease control) [2] | Test C rating (% disease control) [3] | Test J rating (% disease control) [4] | Test G rating (% disease control) [5] | Test H rating (% disease control) [6] | Test I rating (% disease control) [7]
1 | Cc1nn(C)c(Oc2ccc([N+](=O)[O-])cc2Cl)c1-c1ccc(F)cc1Cl [compound 119] | 100% | 0% | 0% | 96% | 100% | 16% | 99%
2 | Cc1nn(C)c(Nc2ccc(C#N)cc2F)c1-c1c(F)cc(F)cc1F [compound 120] | 100% | 94% | 99% | 99% | 100% | 0% | 99%
3 | Cc1nn(C)c(Oc2c(F)cc([N+](=O)[O-])cc2F)c1-c1ccc(F)cc1Cl [compound 121] | 100% | 82% | 86% | 97% | 99% | 83% | 100%
4 | Cc1nn(C)c(Oc2ccc(F)cc2[N+](=O)[O-])c1-c1ccc(F)cc1Cl [compound 122] | 0% | 0% | 0% | 0% | 0% | 11% | 0%
5 | COc1ccc(Nc2c(-c3c(F)cc(C#N)cc3F)c(C)nn2C)cc1 [compound 126] | 99% | 60% | 96% | 0% | 100% | 0% | 94%
6 | COc1cc(Nc2c(-c3c(F)cc(C#N)cc3F)c(C)nn2C)ccc1F [compound 127] | 70% | 0% | 0% | 0% | 99% | 0% | 68%
7 | COc1cc(F)c(-c2c(C)nn(C)c2Nc2ncc(F)cc2F)c(F)c1 [compound 128] | 100% | 97% | 100% | 100% | 99% | 66% | 100%
8 | Cc1nn(C)c(Oc2ccc(Cl)c(F)c2)c1-c1c(F)cc(F)cc1F [compound 129] | 99% | 0% | 0% | 0% | 96% | 0% | 0%
9 | Cc1nn(C)c(Oc2ccc(Br)c(F)c2)c1-c1c(F)cc(F)cc1F [compound 130] | 97% | 0% | 0% | 0% | 99% | 0% | 19%
10 | Cc1nn(C)c(Oc2ccc([N+](=O)[O-])c(F)c2)c1-c1c(F)cc(F)cc1F [compound 131] | 99% | 0% | 0% | 94% | 98% | 0% | 86%
11 | Cc1nn(C)c(Nc2cc(F)c(F)c(F)c2)c1-c1ccc(F)cc1Cl [compound 132] | 99% | 0% | 0% | 92% | 100% | 0% | 94%
